Measurements as given in patent publication EP1347751B1, “METHODS OF TREATING BONE CANCER AND THE PAIN ASSOCIATED THEREWITH USING ENDOTHELIN ANTAGONISTS” (ABBOTT LABORATORIES, priority 2000, dated 2002).

How the values were obtained:
[1] = Visual Analog Scale (VAS) pain assessment in treated subjects; format: in vivo, human; details: men with symptomatic hormone refractory prostate cancer; 2.5 mg or 10 mg vs placebo; independent of the effects of morphine; AUC, Figure 3
Procedure: (§1) Studies were performed on male subjects with asymptomatic hormone refractory prostate cancer with rising PSA levels and on male subjects with symptomatic hormone refractory prostate cancer with rising PSA levels and pain. Subjects in the phase II studies had castrate levels of testosterone, either due to pharmacologic intervention, via leuprolide (Lupron®) or goserelin (Zoladex®), or via surgical castration. Subjects received ABT-627 or placebo. The following tests were conducted: • ABT-627 was formulated in 2.5 and 10 mg doses. An oral liquid formulation of ABT-627 was also prepared as follows: 1 mg/ml ABT-627, 50% glycerin, 14% alcohol, and water. Matching placebos were also provided. […]
During the course of the study, pain asessments were done daily, at bedtime, by the subject. […] The log also contained a table on which was recorded all daily pain medication consumed by the patient. […] Clinical personnel who received the logs measured the score by measuring the distance (in mm) from the "no pain" end mark to the point where the subject's line crossed the VAS line. […]
The weekly VAS scores were calculated excluding the lowest and highest score for each week and averaging the remaining five scores. […]

[2] = system: bone alkaline phosphatase (BAP); test: Bone Alkaline Phosphatase levels in treated subjects (Alkphase-B assay); format: in vivo, human; details: men with hormone refractory prostate cancer; 10 mg vs placebo; AUC, Figure 5
Procedure: (§2) Studies were performed on male subjects with asymptomatic hormone refractory prostate cancer with rising PSA levels and on male subjects with symptomatic hormone refractory prostate cancer with rising PSA levels and pain. Subjects in the phase II studies had castrate levels of testosterone, either due to pharmacologic intervention, via leuprolide (Lupron®) or goserelin (Zoladex®), or via surgical castration. Subjects received ABT-627 or placebo. The following tests were conducted: • ABT-627 was formulated in 2.5 and 10 mg doses. An oral liquid formulation of ABT-627 was also prepared as follows: 1 mg/ml ABT-627, 50% glycerin, 14% alcohol, and water. Matching placebos were also provided.
(§3) Markers of osteoblastic activity were assessed using urine samples. Bone markers include bone alkaline phosphatase (BAP), deoxypridinoline, and N-telopeptide of Type I collagen. Blood samples were collected prior to dosing on Day 1, Day 42, Day 84, Day 168, and every 28 days after Day 168, with a final collection on the last day of the study.
Bone Alkaline Phosphatase levels were determined using the bone-specific Alkphase-B® assay published by Metra Biosystems (Mountain View, CA).

Chromagranin-A = Chromagranin-A levels in serum of treated subjects (two site chemiluminescence assay, ICMA); format: in vivo, human; details: men with hormone refractory prostate cancer, 2.5 mg/day, AUC, Figure 8
Procedure: as §2
(§4) A number of recognized or putative biochemical markers of disease progression have been used to monitor treatment of individuals with prostate cancer. […]
The effect of ABT-627 adminstration on Chromagranin-A levels in human serum samples was determined by proprietary assay conducted at the Nichols Institute. […] The bound, acridinium-labeled material produces light that is detected in a luminometer after addition of triggering agents. […]

[3] = system: prostate specific antigen (PSA); test: Prostate Specific Antigen level assay (Chiron ACS: Centaur PSA2 sandwich immunoassay) in serum of treated subjects; format: in vivo, human; details: men with hormone refractory prostate cancer; oral 2.5 mg or 10 mg vs placebo; AUC, Figure 2
Procedure: as §2, §4
The effect of ABT-627 administration on prostate specific antigen (PSA) levels in human subject serum samples was determined using the procedure described in the Chiron Diagnostics ACS: Centaur PSA2 Assay. […]
Briefly, a subject population was treated with a placebo or 2.5 mg or 10 mg of ABT-627. […] A direct relationship exists between the amount of PSA present in the patient sample and the RLU's (relative light units) detected.

[4] = system: carboxyterminal cross-linked telopeptide of type I collagen (ICTP); test: Crosslinked N-telopeptide levels in treated subjects (DiaSorin ICTP radioimmunoassay); format: in vivo; details: men with hormone refractory prostate cancer; human serum; 10 mg vs placebo; AUC, Figure 4
Procedure: as §2, §3
Cross-linked N-telopeptide levels were determined using the DiaSorin (Stillwater, MN) assay for the quantitative determination of carboxyterminal cross-linked telopeptide of type I collagen (ICTP) in human serum by equilibrium radioimmunoassay (RIA). […] The bound tracer in the pellet was counted with a gamma counter. […]

[5] = Bone scan (Tc-99m phosphonate, bone scan index) in treated subjects; format: in vivo, human; details: men with hormone refractory prostate cancer; bone scans; 10 mg versus placebo; Figure 6
Procedure: as §2
Bone scans were performed with an NDA approved, Tc-99m phosphonate type radiopharmaceutical. This technique uses whole body format (skull to feet) so that anterior and posterior images are presented when using a 510 K-approved gamma camera. […] Each site was evaluated against a confidence score of 1 to 5, where 1 is negative, 2 is probably negative, 3 is equivocal, 4 is probably positive, and 5 is definitely positive. […] In addition, in a blinded study, a reference nuclear medicine physician interpreted the bone scans quantitatively as follows: the percent of involved bone was estimated for each individual bone, and the individual bone involvement was summed to calculate a global percent bone scan index (BSI). […]

Interleukin-6 = Interleukin-6 levels in serum of treated subjects (sandwich immunoassay); format: in vivo, human; details: men with hormone refractory prostate cancer, 2.5 mg or 10 mg vs placebo, AUC, Figure 1
Procedure: as §2, §4
The effect of ABT-627 adminstration on Interleukin-6 levels in human serum samples was determined at Quintiles Laboratories using a sandwich immunoassay. […] After incubation, the wells were washed, and the bound enzymatic activity was measured using a chromogenic substrate. […]

Acid Phosphatase (ACP) = test: Acid Phosphatase levels in serum of treated subjects (Sigma Diagnostics ACP Procedure No. 435); format: in vivo, human; details: men with hormone refractory prostate cancer, treated vs placebo, AUC, Figure 7
Procedure: as §1
The effect of ABT-627 administration on Acid Phosphatase levels in human subject serum samples was determined at Quintiles Laboratories using the chemical test described in Sigma Diagnostics Acid Phosphatase (ACP) Procedure No. 435. […] The alpha-naphthol immediately reacts with fast red TR salt to produce a yellow chromophore with an absorbance maximum at 405 nm. The rate of increase in absorbance at 405 nm is directly proportional to ACP activity in the sample. ACP activity was determined in the presence and absence of L-tartrate, the difference being attributed to prostatic acid phosphatase activity. […]

CCCCN(CCCC)C(=O)CN1C[C@H](c2ccc3c(c2)OCO3)[C@@H](C(=O)O)[C@@H]1c1ccc(OC)cc1 [ABT-627]
VAS scores (pain) [1]: decrease in pain
BAP levels [2]: decreased
average change from baseline for Chromagranin-A (Chromagranin-A): higher
rate of increase of PSA in the serum samples [3]: decreases
Crosslinked N-telopeptide levels [4]: decreased
proportion of total skeketal involvement [5]: decrease in the proportion of total skeketal involvement
average change in baseline for Interleukin-6 (Interleukin-6): lower
average change from baseline for acid phosphatase (Acid Phosphatase (ACP)): decreased
rate of increase for acid phosphatase (Acid Phosphatase (ACP)): decreased
